Assay [1] addresses KRAS protein containing G12D mutation (Homo sapiens (Human), UniProt P01116, G12D). Kind of assay: SOS-catalyzed nucleotide exchange assay (GNE), TR-FRET. The assay is classed as biochemical. Particulars: biotinylated KRAS G12D, SOS and GTP, 60-minute incubation. As to the method:
Compounds are added to this complex and then after a 60-minute incubation time the mixture is treated with SOS and unlabeled GTP. Small molecule inhibitors stabilize the Bodipy-GDP complex whereas the untreated protein rapidly exchanges Bodipy-GDP for unlabeled GTP resulting in reduced TR-FRET signal.
This solution is referred to as biotinylated KRAS G12D stock solution.
In general terms: Time-resolved FRET reads energy transfer from a long-lived donor to a nearby acceptor.

Assay [2] concerns AsPC-1 cells containing homozygous KRAS-G12D activating mutation. Kind of assay: Cellular phospho-ERK assay with 10% FBS (Examples 107a-256). The class given is cell-based. As to the method:
5% CO2 for 2 hours. […] Assay plates were read on a EnVision Multimode Plate Reader (PerkinElmer) and the ratio of p-Erk vs total Erk in each well was used as the final readout.

The mark [3] stands for this setting: Homo sapiens, ASPC1, 2 h, read-out: IC50 (nM) pERK (cell with FBS 10%), AsPC-1 cells, 10% fetal bovine serum, 2 hours, ratio of p-Erk vs total Erk.
Where [4] appears, read: read-out: IC50 (nM) pERK (cell with FBS 10%), AsPC-1 cells, 10% fetal bovine serum, 2 hours, ratio of p-Erk vs total Erk.

Where a name gives a salt, the structure may show the parent alone. Read-outs that look alike come from different tables or passages of the source.

For `C#Cc1cccc2c(F)c(O)cc(-c3c(F)cc4c(N5C[C@H]6CC[C@@](C)(C5)N6)nc(OC[C@@]56CCCN5C[C@H](F)C6)nc4c3F)c12` [202b, 4-(6,8-difluoro-2-(((2R,7aS)-2-fluorotetrahydro-1H-pyrrolizin-7a(5H)-yl)methoxy)-4-((1S,5R)-1-methyl-3,8-diazabicyclo[3.2.1]octan-3-yl)quinazolin-7-yl)-5-ethynyl-1-fluoronaphthalen-2-ol], the values for the IC50 in assay [1] and in assay [2] (setting [3]) were 3.94 nM and 302 nM, respectively.

With `C#Cc1cccc2cccc(-c3c(F)cc4c(N5CC6(C)CCC(C)(C5)N6)nc(OC[C@@]56CCCN5C[C@H](F)C6)nc4c3F)c12` (single isomer, unassigned) [Ex. 190b, TFA], the IC50 in assay [1] came to 72 nM; in assay [2] (read-out: IC50 (nM) pERK (cell with FBS 10%), AsPC-1 cells, 10% fetal bovine serum, 2 hours, ratio of p-Erk vs total Erk, TFA) it was 5830 nM.

With `Nc1cc(F)c(C(F)(F)F)c(-c2c(F)cc3c(N4CC5CCC(C4)N5)nc(OC[C@@]45CCCN4C[C@H](F)C5)nc3c2F)c1F` (single isomer, unassigned) [Ex. 145a], the IC50 in assay [1] is 1270 nM; in assay [2] (setting [4]), 19400 nM.

For `CCc1cccc2cc(O)cc(-c3c(F)cc4c(N5CC6CC[C@@](C)(C5)N6)nc(OC[C@@]56CCCN5C[C@H](F)C6)nc4c3F)c12` (single isomer, unassigned) [Ex. 178a], the IC50 in assay [1] is 1.73 nM; in assay [2] (setting [4]), 108 nM.

As to `C[C@]12CCC(CN(c3nc(OCC45CCCN4CC(F)C5)nc4c(F)c(-c5nc(N)cc6cccc(Cl)c56)c(F)cc34)C1)N2` (stereo in doubt) [Ex. 131, 8-chloro-1-(6,8-difluoro-2-(((2S,7aR)-2-fluorotetrahydro-1H-pyrrolizin-7a(5H)-yl)methoxy)-4-((1S,5R)-1-methyl-3,8-diaza-bicyclo[3.2.1]octan-3-yl)quinazolin-7-yl) isoquinolin-3-amine], the results for the IC50 in assay [1] and in assay [2] (setting [3]) were 188 nM and 6980 nM, respectively.

On to `C[C@]12CC[C@H](CN(c3nc(OC[C@@H]4CC[C@]5(CO)CCCN45)nc4c(F)c(-c5cc(O)cc6cccc(Cl)c56)c(F)cc34)C1)N2` [Ex. 243b, 5-chloro-4-(6,8-difluoro-2-(((3S,7aS)-7a-(hydroxymethyl)hexahydro-1H-pyrrolizin-3-yl)methoxy)-4-((1S,5R)-1-methyl-3,8-diazabicyclo[3.2.1]octan-3-yl)quinazolin-7-yl)naphthalen-2-ol], for which the IC50 amounted to 23.1 nM in assay [1] and 20500 nM in assay [2] (setting [3]).

As for `C#Cc1cccc2cc(N)nc(-c3c(F)cc4c(N5CC6CCC(C5)N6)nc(OC[C@@]56CCCN5C[C@H](F)C6)nc4c3F)c12` (single isomer, unassigned) [Ex. 148b], the IC50 in assay [1] was determined as 751 nM; in assay [2] (setting [4]) it was 8550 nM.

Take `Cc1c(C(F)(F)F)c(-c2c(F)cc3c(N4CC5CCC(C4)N5)nc(OC[C@@]45CCCN4C[C@H](F)C5)nc3c2F)c2cn[nH]c2c1F` (single isomer, unassigned) [Ex. 166b]: the IC50 in assay [1] was found to be 4.4 nM; in assay [2] (setting [4]) it was 152 nM.

As to `C[C@]12CC[C@H](CN(c3nc(OC[C@@H]4CCNC4)nc4c(F)c(-c5cc(O)cc6ccccc56)c(Cl)cc34)C1)N2` [Example 122, 4-(6-chloro-8-fluoro-4-((1S,5R)-1-methyl-3,8-diazabicyclo[3.2.1]octan-3-yl)-2-(((R)-pyrrolidin-3-yl)methoxy)quinazolin-7-yl)naphthalen-2-ol, TFA], the IC50 in assay [1] turned out to be 964 nM; in assay [2] (setting [3]), 30000 nM.

As for `Nc1cc2cccc(Cl)c2c(-c2c(F)cc3c(N4C[C@H]5CC[C@@H](C4)N5)nc(OC[C@@]45CCCN4C[C@H](F)C5)nc3c2F)n1` [Ex. 132, 1-(4-((1R,5S)-3,8-diazabicyclo[3.2.1]octan-3-yl)-6,8-difluoro-2-(((2R,7aS)-2-fluorotetrahydro-1H-pyrrolizin-7a(5H)-yl)methoxy)quinazolin-7-yl)-8-chloroisoquinolin-3-amine], the IC50 in assay [1] turned out to be 347 nM; in assay [2] (setting [3]), 5580 nM.

As to `Cc1n[nH]c2ncc(C(F)(F)F)c(-c3c(F)cc4c(N5C[C@H]6CC[C@@H](C5)N6)nc(OC[C@@]56CCCN5C[C@H](F)C6)nc4c3F)c12` [Ex. 234, 4-((1R,5S)-3,8-diazabicyclo[3.2.1]octan-3-yl)-6,8-difluoro-2-(((2R,7aS)-2-fluorotetrahydro-1H-pyrrolizin-7a(5H)-yl)methoxy)-7-(3-methyl-5-(trifluoromethyl)-1H-pyrazolo[3.4-b]pyridin-4-yl)quinazoline], the IC50 worked out at 64 nM in assay [1] and 785 nM in assay [2] (setting [4]).

For the compound `C#Cc1c(F)ccc2cc(N)nc(-c3c(F)cc4c(N5C[C@H]6CC[C@@H](C5)N6)nc(OC[C@@]56CCCN5C[C@H](F)C6)nc4c3F)c12` (single isomer, unassigned) [252a], the IC50 worked out at 0.85 nM in assay [1] and 64.3 nM in assay [2] (setting [3]).

`C[C@@]12CC[C@H](CN(c3nc(OC[C@@]45CCCN4C[C@H](F)C5)nc4c(F)c(-c5cc(O)cc6cccc(F)c56)c(F)cc34)C1)N2` (single isomer, unassigned) [Ex. 186b]: the IC50 came out at 185 nM in assay [1] and 3780 nM in assay [2] (setting [4]).

For `Cc1cc2[nH]ncc2c(-c2c(F)cc3c(N4C[C@H]5CC[C@@](C)(C4)N5)nc(OC[C@@]45CCCN4C[C@H](F)C5)nc3c2F)c1OC(F)(F)F` (single isomer, unassigned) [Ex. 126a], the IC50 in assay [1] came to 8.59 nM; in assay [2] (setting [4]), 1240 nM.

Take `C[C@]12CCC(CN(c3nc(OCC4(CN5CC6CCC(C5)O6)CC4)nc4c(F)c(-c5cc(O)cc6cccc(Cl)c56)c(F)cc34)C1)N2` (single isomer, unassigned) [Ex. 208]: the values for the IC50 in assay [1] and in assay [2] (setting [3]) were 210 nM and 30000 nM, respectively.

Consider `C[C@]12CC[C@H](CN(c3nc(OC[C@@]45CCCN4C[C@H](F)C5)nc4c(F)c(-c5c(F)cc(F)c6oc(N)nc56)c(Cl)cc34)C1)N2` (single isomer, unassigned) [Ex. 170a], for which the values for the IC50 in assay [1] and in assay [2] (setting [4]) were 4.72 nM and 1380 nM, respectively.

As to `Oc1c(F)cc(Cl)c(Cl)c1-c1c(Cl)cc2c(N3C[C@H]4CC[C@@H](C3)N4)nc(OC[C@@]34CCCN3C[C@H](F)C4)nc2c1F` [Ex. 199, 2-(4-((1R,5S)-3,8-diazabicyclo[3.2.1]-octan-3-yl)-6-chloro-8-fluoro-2-(((2R,7aS)-2-fluorotetrahydro-1H-pyrrolizin-7a(5H)-yl)-methoxy)quinazolin-7-yl)-3,4-dichloro-6-fluorophenol], the IC50 in assay [1] was found to be 2620 nM; in assay [2] (setting [3]) it was 30000 nM.

Take `C[C@]12CCC(CN(c3nc(OC[C@@]45CCCN4C[C@H](F)C5)nc4c(F)c(-c5cccc6cccc(Cl)c56)c(F)cc34)C1)N2` (mixture of isomers) [Ex. 212, 7-(8-chloronaphthalen-1-yl)-6,8-difluoro-2-(((2R, 7aS)-2-fluorotetrahydro-1H-pyrrolizin-7a(5H)-yl)-methoxy)-4-((1S,5R)-1-methyl-3,8-diazabicyclo-[3.2.1]octan-3-yl)quinazoline, 2TFA]: the figures for the IC50 in assay [1] and in assay [2] (setting [3]) were 180 nM and 9060 nM, respectively.

On to `Cc1cc(N)nc(-c2c(Cl)cc3c(N4C[C@H]5CC[C@@](C)(C4)N5)nc(OC[C@@]45CCCN4C[C@H](F)C5)nc3c2F)c1C(F)(F)F` [Ex. 238a, 6-(6-chloro-8-fluoro-2-(((2R,7aS)-2-fluorotetrahydro-1H-pyrrolizin-7a(5H)-yl)methoxy)-4-((1S,5R)-1-methyl-3,8-diazabicyclo[3.2.1]octan-3-yl)quinazolin-7-yl)-4-methyl-5-(trifluoromethyl)pyridin-2-amine], for which the IC50 worked out at 25.7 nM in assay [1] and 1590 nM in assay [2] (setting [3]).

Turning to `COCCOCC1CCN(C[C@@]2(COc3nc(N4CC5CC[C@@](C)(C4)N5)c4cc(F)c(-c5c(C(F)(F)F)c(C)cc6[nH]ncc56)c(F)c4n3)CC2(F)F)C1` (single isomer, unassigned) [Ex. 222], the IC50 in assay [1] is 8.84 nM; in assay [2] (setting [3]), 2880 nM.

Regarding `Nc1nc2c(-c3c(Cl)cc4c(N5CC6CCC(C5)N6)nc(OC[C@@]56CCCN5C[C@H](F)C6)nc4c3F)c(F)cc(F)c2o1` (single isomer, unassigned) [Ex. 133a], the values for the IC50 in assay [1] and in assay [2] (setting [4]) were 61.4 nM and 3470 nM, respectively.

Turning to `C#Cc1cccc2cc(O)c(F)c(-c3c(F)cc4c(N5CC6CC[C@@](C)(C5)N6)nc(OC[C@@]56CCCN5C[C@H](F)C6)nc4c3F)c12` (single isomer, unassigned) [Ex. 192a], the IC50 worked out at 1.17 nM in assay [1] and 114 nM in assay [2] (setting [4]).

Turning to “2,2,2-trifluoroacetaldehyde-6-(6-chloro-8-fluoro-2-(((2R,7aS)-2-fluorotetrahydro-1H-pyrrolizin-7a(5H)-yl)methoxy)-4-((1S,5R)-1-methyl-3,8-diazabicyclo[3.2.1]octan-3-yl)quinazolin-7-yl)-4-methyl-5-(trifluoromethyl)pyridin-2-amine (1/1) [Ex. 238b]”, the IC50 in assay [1] was 2710 nM; in assay [2] (setting [4]), 21100 nM.

Regarding `Cc1cc2[nH]ncc2c(-c2c(F)cc3c(N4CC5CCC(C4)N5)nc(OC[C@@]45CCCN4C[C@H](F)C5)nc3c2F)c1OC(F)(F)Cl` (single isomer, unassigned) [compound 253], the IC50 in assay [1] is 1.74 nM; in assay [2] (setting [3]), 111 nM.

Turning to `C[C@]12CC[C@H](CN(c3nc(OCC4(CN5CCCC(O)(C(F)(F)F)C5)CC4)nc4c(F)c(-c5cc(O)cc6cccc(Cl)c56)c(F)cc34)C1)N2` (mixture of isomers) [Ex. 206, rac-1-((1-(((7-(8-chloro-3-hydroxynaphthalen-1-yl)-6,8-difluoro-4-((1S,5R)-1-methyl-3,8-diazabicyclo-[3.2.1]octan-3-yl)quinazolin-2-yl)oxy)methyl)cyclo-propyl)methyl)-3-(trifluoromethyl)piperidin-3-ol], the IC50 is 1340 nM in assay [1] and 30000 nM in assay [2] (setting [3]).

For the origin of these results see patent publication US20240239788A1, “SMALL MOLECULE INHIBITORS OF KRAS G12D MUTANT” (Merck Sharp & Dohme LLC, priority 2021, published 2024).
